Assay results taken from article PMC12090182, “Repurposing of the RIPK1-Selective Benzo[1,4]oxazepin-4-one Scaffold for the Development of a Type III LIMK1/2 Inhibitor” (ACS Chemical Biology, 2025).
Where two headings read alike, the source gives them in different places.

Tested on: U2OS cells
Type: cell-based
Details: U2OS
In short: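 HEK293T and U2OS cells (DMEM) and MRC-9 fibroblasts (EMEM) exposed to compounds at 1 and 10 μM. Live-cell confocal imaging of cell shape and fluorescence before and at 12, 24 and 48 h. Normalized to 0.1% DMSO; biological duplicates with SEM.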

[1] = 1 µM, 0 h after treatment, biological replicate 1
[2] = 1 µM, 0 h after treatment, biological replicate 2
[3] = 1 µM, 12 h after treatment, biological replicate 1
[4] = 1 µM, 12 h after treatment, biological replicate 2
[5] = 1 µM, 24 h after treatment, biological replicate 1
[6] = 1 µM, 24 h after treatment, biological replicate 2
[7] = 1 µM, 48 h after treatment, biological replicate 1
[8] = 1 µM, 48 h after treatment, biological replicate 2
[9] = 10 µM, 0 h after treatment, biological replicate 1
[10] = 10 µM, 0 h after treatment, biological replicate 2
[11] = 10 µM, 12 h after treatment, biological replicate 1
[12] = 10 µM, 12 h after treatment, biological replicate 2
[13] = 10 µM, 24 h after treatment, biological replicate 1
[14] = 10 µM, 24 h after treatment, biological replicate 2
[15] = 10 µM, 48 h after treatment, biological replicate 1
[16] = 10 µM, 48 h after treatment, biological replicate 2

CC(C)C(=O)Nc1ncc(C(=O)NCCN(Cc2ccccc2)C(=O)c2ccc(S(=O)(=O)Nc3ccccc3)cc2)s1 [TH470]
Cell count normalized to cells treated with DMSO control [1]: 0.966 | Cell count per well [1]: 201 | Population Fragmented Nuclei (%) [1]: 47.72% | Population Healthy Nuclei (%) [1]: 44.16% | Population Pyknosed Nuclei (%) [1]: 8.12% | Population apoptotic cell (%) [1]: 87.50% | Population cell that influence microtubule strucutre (%) [1]: 6.90% | Population with increased mitochondrial mass (%) [1]: 2.30% | Population with membrane disruption (%) [1]: 9.20% | Cell count normalized to cells treated with DMSO control [2]: 1.038 | Cell count per well [2]: 89 | Population Fragmented Nuclei (%) [2]: 15.73% | Population Healthy Nuclei (%) [2]: 79.78% | Population Pyknosed Nuclei (%) [2]: 4.49% | Population apoptotic cell (%) [2]: 50.00% | Population cell that influence microtubule strucutre (%) [2]: 5.63% | Population with increased mitochondrial mass (%) [2]: 4.23% | Population with membrane disruption (%) [2]: 4.23% | Cell count normalized to cells treated with DMSO control [3]: 0.8658 | Cell count per well [3]: 229 | Population Fragmented Nuclei (%) [3]: 36.24% | Population Healthy Nuclei (%) [3]: 55.96% | Population Pyknosed Nuclei (%) [3]: 7.80% | Population apoptotic cell (%) [3]: 76.47% | Population cell that influence microtubule strucutre (%) [3]: 1.64% | Population with increased mitochondrial mass (%) [3]: 4.10% | Population with membrane disruption (%) [3]: 4.10% | Cell count normalized to cells treated with DMSO control [4]: 1.074 | Cell count per well [4]: 127 | Population Fragmented Nuclei (%) [4]: 17.89% | Population Healthy Nuclei (%) [4]: 73.98% | Population Pyknosed Nuclei (%) [4]: 8.13% | Population apoptotic cell (%) [4]: 100.00% | Population cell that influence microtubule strucutre (%) [4]: 4.40% | Population with increased mitochondrial mass (%) [4]: 4.40% | Population with membrane disruption (%) [4]: 12.09% | Cell count normalized to cells treated with DMSO control [5]: 0.8405 | Cell count per well [5]: 262 | Population Fragmented Nuclei (%) [5]: 31.54% | Population Healthy Nuclei (%) [5]: 59.62% | Population Pyknosed Nuclei (%) [5]: 8.85% | Population apoptotic cell (%) [5]: 73.91% | Population cell that influence microtubule strucutre (%) [5]: 2.58% | Population with increased mitochondrial mass (%) [5]: 4.52% | Population with membrane disruption (%) [5]: 5.16% | Cell count normalized to cells treated with DMSO control [6]: 1.041 | Cell count per well [6]: 148 | Population Fragmented Nuclei (%) [6]: 19.59% | Population Healthy Nuclei (%) [6]: 67.57% | Population Pyknosed Nuclei (%) [6]: 12.84% | Population apoptotic cell (%) [6]: 94.74% | Population cell that influence microtubule strucutre (%) [6]: 3.00% | Population with increased mitochondrial mass (%) [6]: 4.00% | Population with membrane disruption (%) [6]: 4.00% | Cell count normalized to cells treated with DMSO control [7]: 0.7931 | Cell count per well [7]: 353 | Population Fragmented Nuclei (%) [7]: 26.16% | Population Healthy Nuclei (%) [7]: 66.57% | Population Pyknosed Nuclei (%) [7]: 7.27% | Population apoptotic cell (%) [7]: 80.00% | Population cell that influence microtubule strucutre (%) [7]: 3.06% | Population with increased mitochondrial mass (%) [7]: 2.62% | Population with membrane disruption (%) [7]: 3.93% | Cell count normalized to cells treated with DMSO control [8]: 1.07 | Cell count per well [8]: 221 | Population Fragmented Nuclei (%) [8]: 17.59% | Population Healthy Nuclei (%) [8]: 71.30% | Population Pyknosed Nuclei (%) [8]: 11.11% | Population apoptotic cell (%) [8]: 87.50% | Population cell that influence microtubule strucutre (%) [8]: 5.84% | Population with increased mitochondrial mass (%) [8]: 3.90% | Population with membrane disruption (%) [8]: 5.84% | Cell count normalized to cells treated with DMSO control [9]: 1.105 | Cell count per well [9]: 230 | Population Fragmented Nuclei (%) [9]: 38.01% | Population Healthy Nuclei (%) [9]: 52.49% | Population Pyknosed Nuclei (%) [9]: 9.50% | Population apoptotic cell (%) [9]: 85.71% | Population cell that influence microtubule strucutre (%) [9]: 0.86% | Population with increased mitochondrial mass (%) [9]: 0.86% | Population with membrane disruption (%) [9]: 3.45% | Cell count normalized to cells treated with DMSO control [10]: 0.875 | Cell count per well [10]: 75 | Population Fragmented Nuclei (%) [10]: 10.67% | Population Healthy Nuclei (%) [10]: 82.67% | Population Pyknosed Nuclei (%) [10]: 6.67% | Population apoptotic cell (%) [10]: 80.00% | Population cell that influence microtubule strucutre (%) [10]: 3.23% | Population with increased mitochondrial mass (%) [10]: 3.23% | Population with membrane disruption (%) [10]: 6.45% | Cell count normalized to cells treated with DMSO control [11]: 0.9149 | Cell count per well [11]: 242 | Population Fragmented Nuclei (%) [11]: 26.79% | Population Healthy Nuclei (%) [11]: 56.70% | Population Pyknosed Nuclei (%) [11]: 16.52% | Population apoptotic cell (%) [11]: 64.86% | Population cell that influence microtubule strucutre (%) [11]: 62.20% | Population with increased mitochondrial mass (%) [11]: 41.73% | Population with membrane disruption (%) [11]: 55.91% | Cell count normalized to cells treated with DMSO control [12]: 0.8031 | Cell count per well [12]: 95 | Population Fragmented Nuclei (%) [12]: 10.75% | Population Healthy Nuclei (%) [12]: 74.19% | Population Pyknosed Nuclei (%) [12]: 15.05% | Population apoptotic cell (%) [12]: 85.71% | Population cell that influence microtubule strucutre (%) [12]: 39.13% | Population with increased mitochondrial mass (%) [12]: 52.17% | Population with membrane disruption (%) [12]: 28.99% | Cell count normalized to cells treated with DMSO control [13]: 0.8277 | Cell count per well [13]: 258 | Population Fragmented Nuclei (%) [13]: 25.41% | Population Healthy Nuclei (%) [13]: 59.43% | Population Pyknosed Nuclei (%) [13]: 15.16% | Population apoptotic cell (%) [13]: 75.68% | Population cell that influence microtubule strucutre (%) [13]: 25.52% | Population with increased mitochondrial mass (%) [13]: 33.10% | Population with membrane disruption (%) [13]: 26.90% | Cell count normalized to cells treated with DMSO control [14]: 0.7946 | Cell count per well [14]: 113 | Population Fragmented Nuclei (%) [14]: 10.81% | Population Healthy Nuclei (%) [14]: 73.87% | Population Pyknosed Nuclei (%) [14]: 15.32% | Population apoptotic cell (%) [14]: 70.59% | Population cell that influence microtubule strucutre (%) [14]: 19.51% | Population with increased mitochondrial mass (%) [14]: 31.71% | Population with membrane disruption (%) [14]: 9.76% | Cell count normalized to cells treated with DMSO control [15]: 0.7572 | Cell count per well [15]: 337 | Population Fragmented Nuclei (%) [15]: 22.70% | Population Healthy Nuclei (%) [15]: 63.19% | Population Pyknosed Nuclei (%) [15]: 14.11% | Population apoptotic cell (%) [15]: 89.13% | Population cell that influence microtubule strucutre (%) [15]: 11.65% | Population with increased mitochondrial mass (%) [15]: 14.56% | Population with membrane disruption (%) [15]: 12.62% | Cell count normalized to cells treated with DMSO control [16]: 0.76 | Cell count per well [16]: 157 | Population Fragmented Nuclei (%) [16]: 10.00% | Population Healthy Nuclei (%) [16]: 69.33% | Population Pyknosed Nuclei (%) [16]: 20.67% | Population apoptotic cell (%) [16]: 87.10% | Population cell that influence microtubule strucutre (%) [16]: 14.42% | Population with increased mitochondrial mass (%) [16]: 14.42% | Population with membrane disruption (%) [16]: 11.54%
